“Also recorded” adds a separate entry of the source.
Tests used:
[1] = Acute toxicity (LD50) in rats; settings: rat, in vivo, rats injected with increasing doses
Description: The LD50 was determined by using rats injected with different increasing doses of the synthesized compounds. The dose that killed 50% of the animals was calculated according to Austen and Brocklehurst (Table 4).

[2] = target: T1, human androgen receptor (Homo sapiens, UniProt P10275); test: In vitro androgen receptor antagonistic activity, DHT-induced MMTV-luciferase reporter assay in AR/CHO#3 cells; assay type: cell-based; settings: 0.3 nM DHT
T1 construct: expressed in transfected cells
T1 sequence (P10275 1-920): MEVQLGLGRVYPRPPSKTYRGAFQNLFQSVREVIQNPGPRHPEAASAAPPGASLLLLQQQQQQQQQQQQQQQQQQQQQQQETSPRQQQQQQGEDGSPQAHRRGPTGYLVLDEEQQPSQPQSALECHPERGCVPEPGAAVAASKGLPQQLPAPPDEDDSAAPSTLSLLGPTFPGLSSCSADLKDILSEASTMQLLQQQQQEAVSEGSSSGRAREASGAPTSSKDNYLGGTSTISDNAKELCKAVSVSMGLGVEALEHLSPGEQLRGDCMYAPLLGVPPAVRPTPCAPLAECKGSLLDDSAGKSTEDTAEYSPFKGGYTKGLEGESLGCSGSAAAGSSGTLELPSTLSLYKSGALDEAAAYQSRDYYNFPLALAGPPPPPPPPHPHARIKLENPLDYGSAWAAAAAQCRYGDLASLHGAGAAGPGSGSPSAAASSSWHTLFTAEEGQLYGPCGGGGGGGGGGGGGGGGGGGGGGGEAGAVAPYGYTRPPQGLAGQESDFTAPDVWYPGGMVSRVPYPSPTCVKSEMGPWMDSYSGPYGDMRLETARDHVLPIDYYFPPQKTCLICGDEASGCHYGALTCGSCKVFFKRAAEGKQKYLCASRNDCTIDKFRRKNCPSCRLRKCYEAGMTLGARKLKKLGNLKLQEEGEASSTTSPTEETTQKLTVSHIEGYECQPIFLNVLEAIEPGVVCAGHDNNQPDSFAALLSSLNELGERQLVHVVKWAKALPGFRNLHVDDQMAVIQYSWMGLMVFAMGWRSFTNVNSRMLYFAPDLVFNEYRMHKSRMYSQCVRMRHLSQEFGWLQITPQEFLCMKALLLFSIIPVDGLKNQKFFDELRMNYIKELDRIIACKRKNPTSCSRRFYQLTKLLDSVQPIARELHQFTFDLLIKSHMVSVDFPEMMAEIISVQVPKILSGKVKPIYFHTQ
Description: Chinese Hamster Ovary (CHO) Cells Stably Transfected with Human Androgen Receptor Gene and Mouse Mammary Tumor Virus (MMTV)-Luciferase Reporter Gene or SV40-Luciferase Gene: CHO cells were maintained in alpha-modified Eagle’s medium supplemented with 10% fetal bovine serum (FBS). The culture medium of neomycin-resistant clone cells was supplemented with 10% dextran-coated charcoal-stripped FBS (DCC-FBS) and […] of neomycin. The CHO cells were transfected at 40%–70% confluence in 10-cm petri dishes with a total of […] DNA (plasmide mammalian neow luciferase, (pMAMneoLUC)); Mouse mammary tumor virus (MMTV)-luciferase reporter plasmid and pSG5-hAR; human androgen receptor expression plasmid, or Simian vacuolating virus 40 (SV40-LUC); SV40-luciferase reporter plasmid containing neomycin resistant gene) by calcium phosphate mediated transfection. The stable transfected cells were selected in the culture medium supplemented with neomycin. The selected clone was designated as AR/CHO#3 (human AR gene and MMTV luciferase reporter gene integrated CHO cell) or SV/CHO#10 (SV-40-luciferase reporter gene integrated CHO cell), respectively.
The stable transfected AR/CHO#3 or SV/CHO#10 cells were plated onto 96-well luminoplates (Packard, Palo Alto, CA, USA) at a density of 2 × 10^4 cells/well, respectively.
Four to eight hours later, the medium was changed to a medium containing DMSO, 0.3 nM of DHT, or 0.3 nM of DHT, and the tested compound. At the end of incubation, the medium was removed and the cells were lysed with […] of lysis buffer (25 mM Tris–HCl (pH 7.8), 2 mM dithiothreitol, 2 mM 1,2-cyclo-hexanediamine-tetraacetic acid, 10% glycerol and 1% Triton X-100). Luciferase substrate (20 mM Tris–HCl (pH 7.8), 1.07 mM magnesium carbonate basic (MgCO3)4Mg(OH)2·5H2O, 2.67 mM MgSO4·7H2O, 0.1 mM ethylenediaminetetraacetic acid (EDTA), 33.3 mM dithiothreitol, 0.27 mM CoA, 0.47 mM luciferin, 0.53 mM ATP) was added, and luciferase activity was measured with a ML3000 luminometer (Dynatech Laboratories, El Paso, TX, UAS). AR antagonistic activities were calculated by the formula below: AR antagonistic activity (%) = 100 (I − X) / (I − B) (1) I: (luciferase activity of AR/CHO#3)/(luciferase activity of SV/CHO#10) in the presence of 0.3 nM of DHT, B: (luciferase activity of AR/CHO#3)/(luciferase activity of SV/CHO#10) in the presence of DMSO, X: (luciferase activity of AR/CHO#3)/(luciferase activity of SV/CHO#10) in the presence of 0.3 nM of DHT and the tested compound.
The concentration of compounds showing 50% AR antagonistic activity, or IC50 values, was obtained by nonlinear analysis using a statistical analysis system (SAS).

[3] = AR/CHO#3 cells normalised to SV/CHO#10
[4] = other: injected (kind of injection not stated)

SMILES | LD50 ([1]; other: injected) [mg/kg] | IC50, in vitro androgen receptor antagonistic activity [2, 3] | IC50, in vitro androgen receptor antagonistic activity ([2]; AR/CHO#3 cells normalised to SV/CHO#10, listed as compound 1) | IC50 [2, 3] [nM] | LD50 [1, 4] [mg/kg]
NNc1nc2c(ccc3ccccc32)s1 [Compound 1, 1-(naphtho[1,2-d]thiazol-2-yl)hydrazine] | 1160 | Inactive | devoid from any activities; also recorded: devoid of any activity | – | –
N#Cc1cnn(-c2nc3c(ccc4ccccc43)s2)c1N [Compound 2, 2-[3-Amino-4-cyanopyrazol-2-yl]naphthalino[1,2-d]thiazole] | 163 | – | – | 31 | –
Nc1ncnc2c1cnn2-c1nc2c(ccc3ccccc32)s1 [Compound 3] | – | – | – | 37 | 175
Nc1n[nH]c2c1cnn2-c1nc2c(ccc3ccccc32)s1 [Compound 4] | – | – | – | 34 | 266
Nc1nc(=S)[nH]c2c1cnn2-c1nc2c(ccc3ccccc32)s1 [Compound 5, 2-[6-Amino-3H-4-thiopyrimidino[4,5-c]pyrazol-2-yl]naphthalino[1,2-d]thiazole] | 267 | – | – | 41 | –
N=c1sc(=S)[nH]c2c1cnn2-c1nc2c(ccc3ccccc32)s1 [Compound 6, 2-[6-Imino-3H-4-thiothiazino[4,5-c]pyrazol-2-yl]naphthalino[1,2-d]thiazole] | 258 | – | – | 44 | –
CCO/C=N\c1c(C#N)cnn1-c1nc2c(ccc3ccccc32)s1 [Compound 8, 2-[3-Ethylimidoformat-4-cyanopyrazol-2-yl]naphthalino[1,2-d]thiazole] | 236 | – | – | 77 | –
N#Cc1cnn(-c2nc3c(ccc4ccccc43)s2)c1/N=C\NN [Compound 9, 2-[3-Imidoformic hydrazido-4-cyanopyrazol-2-yl]naphthalino[1,2-d]thiazole] | 125 | – | – | 75 | –
Cc1nc2c3cnn(-c4nc5c(ccc6ccccc65)s4)c3ncn2n1 [Compound 10, 2-[6-Methyl[1,2,4]triazolo[2,3-c]pyrimidino[6,5-c]pyrazol-2-yl]naphthalino[1,2-d]thiazole] | 316 | – | – | 23 | –
N=c1c2cnn(-c3nc4c(ccc5ccccc54)s3)c2ncn1NC(=O)c1ccccc1 [Compound 11] | – | – | – | 39 | 325
CCOC1SCC(=O)N1c1c(C#N)cnn1-c1nc2c(ccc3ccccc32)s1 (stereo not shown) [Compound 12, 2-[3-(2-Ethoxy-4-oxo-5-dihydro-1,3-thiazol-3-yl)-4-cyanopyrazol-2-yl]-naphthalino[1,2-d]thiazole] | 234 | – | – | 91 | –
CCOC1SCC2NC(=O)c3cnn(-c4nc5c(ccc6ccccc65)s4)c3N21 (stereo not shown) [Compound 13, 2-[3-Ethoxy-5-dihydro-6H-7-oxo-[1,3]thiazolo[3,4-b]pyrimidino[4,5-c]pyrazol-2-yl]naphthalino[1,2-d]thiazole] | 443 | – | – | 29 | –
